Three compounds from patent US20250304568A1, “PYRIMIDINES FOR DEGRADING BRUTON'S TYROSINE KINASE” (AbbVie Inc., priority 2022, published 2025) can be followed below.

The test system of test [1] is TCL1-driven CLL bearing BTK^C481S mutation. The experiment in a line: TCL1-driven CLL bearing BTK^C481S mutation in C57BL/6 mice, circulating leukemia burden. Type of test: in vivo. An excerpt: Eμ-TCL1 CLL transgenic mice (Crogen Pharmaceuticals LLC) were crossed with […] knock-in mice (AbbVie) to generate Eμ-TCL1 transgenic mice carrying the […] mutation. The leukemic splenocytes from these BTK^C481S Eμ-TCL1 transgenic mice (Passage 1) were transplanted intravenously into C57BL/6 mice, leading to CLL development in the peripheral blood and spleen. When circulating CLL burden (CD5+CD19+ cells as described below) in the recipient mice reached over 90%, their splenocytes (Passage 2) containing high CLL burden were cryopreserved and used for CLL efficacy studies. […]
To determine the absolute/total leukocyte numbers, complete blood counts were determined for each mouse using the Genesis™ veterinary hematology analyzer (Oxford Science Inc.).
Cells isolated from murine peripheral blood mononuclear cells (PMBCs) were collected to determine antigen expression. […] Cells were gated on CD45+, and thereafter the percentage of cells that were CD5+CD19+ from that subset was calculated. […]
Whole blood was collected weekly post tumor implantation via submandibular cheek bleeding. Circulating leukemic burden was calculated by multiplying absolute/total leukocyte count with the percentage of the leukocytes have the immunophenotype CD19^+CD5^+. […]

The target in test [2] is Human BTK enzyme, wild-type (Homo sapiens (Human), UniProt Q06187). The experiment in a line: BTK screening: Btk kinase activity, electrophoretic mobility shift assay (MSA). Type of test: biochemical. The following applies: 50 μM ATP, 0.5 nM BTK enzyme, 15 minutes pre-incubation. The method, then: Btk kinase activity was measured in vitro using an electrophoretic mobility shift assay (MSA). The ability of Btk to phosphorylate a fluorescent peptide substrate (FAM-GEEPLYWSFPAKKK-NH2) was measured. The kinase reactions were assembled in a total volume of 25 μL per well in 384 well plates. The following was added to each well: compound buffer (or control); enzyme buffer; and substrate buffer, as further described below. […]
The terminated reactions were analyzed using a 12 channel LABCHIP® 3000 microfluidic detection instrument (available from Caliper Life Sciences, Waltham, MA). […] As substrate and product peptides were separated, two peaks of fluorescence were observed. Change in the relative fluorescence intensity of the substrate and product peaks was the parameter measured, reflecting enzyme activity. […] Capillary electrophoregrams (RDA acquisition files) were analyzed using HTS Well Analyzer software (available from Caliper Life Sciences, Waltham, MA).
Activity in each sample was determined as the product to sum ratio (PSR): P/(S+P), where P was the peak height of the product peptide and S was the peak height of the substrate peptide. For each compound, enzyme activity was measured at various concentrations (12 concentrations of compound spaced by 3× dilution intervals). […]

The target of test [3] is His-tagged Cereblon/DDB1 complex (Homo sapiens (Human), UniProt Q96SW2). The experiment in a line: Cereblon binding assay (AlphaLISA Human Cereblon Binding Kit, competition). Particulars: 10 μM top dose, biotinylated ligand competition; read-out: CRBN IC50. The method, then:
Cereblon binding was measured in vitro using an AlphaLISA® Human Cereblon Binding Kit (PerkinElmer, Waltham, MA) according to the manufacturer's protocol (“Alpha” refers to Amplified Luminescent Proximity Homogeneous Assay). In this assay, donor beads and acceptor beads come into proximity through ligand binding to CRBN protein. Excitation of the donor beads provokes the release of singlet oxygen that triggers a cascade of energy transfer reactions to the acceptor beads, resulting in a sharp peak in light emission at 615 nm.
Specifically, nickel chelate acceptor beads (PerkinElmer AL108M) were used to capture a 6×HIS-tagged CRBN protein, and streptavidin-coated donor beads (PerkinElmer 6760002) were used to capture 50 nM biotinylated ligand. […]
Detection: 10 μL detection reagents were added in low light conditions containing nickel chelate acceptor beads and streptavidin donor beads (Perkin Elmer 6760002), resulting in a final concentration 20 μg/ml. Plates were incubated 1 hour and read on a PerkinElmer™ Envision™ plate reader (680 nm excitation and […] emission settings). The IC50 of each compound was determined by calculating percent inhibition from no drug and no protein controls, and the Ki of each compound was calculated using the Cheng-Prusoff transformation. From the Ki, the ICs50 values were determined. […]

SMILES strings stand for the structures.

For `Cc1cc(-c2cc(Nc3ccc(N4CCN(CCc5ccc(N6CCC(=O)NC6=O)cc5)C[C@@H]4C)cn3)ncn2)ccc1[C@@H](C)NC(=O)c1nc(C(C)(C)C)no1` [Example 1, 3-tert-butyl-N-[(1R)-1-{4-[6-({5-[(2S)-4-{2-[4-(2,4-dioxo-1,3-diazinan-1-yl)phenyl]ethyl}-2-methylpiperazin-1-yl]pyridin-2-yl}amino)pyrimidin-4-yl]-2-methylphenyl}ethyl]-1,2,4-oxadiazole-5-carboxamide], the “CLL burden control (no increase from the initial tumor burden)” value in test [1] (Dosage 3 and Dosage 4, once daily (QD) for 19 days) is “Complete CLL burden control”. Besides, the “circulating leukemia burden (CD19+CD5+ CLL cells per μL)” value in test [1] (once daily (QD) for 19 days, Dosage 1 to 4, dose-dependent manner, FIG. 1) was “controlled circulating leukemia burden”.
As to `Cc1c([C@@H](C)NC(=O)c2nc(C(C)(C)C)no2)ccc(-c2cc(Nc3ccc(N4CCN(CCc5ccc(N6CCC(=O)NC6=O)cc5)C[C@@H]4C)cn3)ncn2)c1F` [Example 10, 3-tert-butyl-N-[(1R)-1-{4-[6-({5-[(2S)-4-{2-[4-(2,4-dioxo-1,3-diazinan-1-yl)phenyl]ethyl}-2-methylpiperazin-1-yl]pyridin-2-yl}amino)pyrimidin-4-yl]-3-fluoro-2-methylphenyl}ethyl]-1,2,4-oxadiazole-5-carboxamide], the values for the half-maximal inhibitory concentration (IC50) in test [2] and in test [3] were 0.106 nM and 6310 nM, respectively.
In the same order, the values of `Cc1c([C@@H](C)NC(=O)c2nc(C(C)(C)C)no2)ccc(-c2cc(Nc3ccc(N4CCN(CCc5ccc(N6CCC(=O)NC6=O)cc5)CC4)cn3)ncn2)c1F` [Example 11, 3-tert-butyl-N-{(1R)-1-[4-(6-{[5-(4-{2-[4-(2,4-dioxo-1,3-diazinan-1-yl)phenyl]ethyl}piperazin-1-yl)pyridin-2-yl]amino}pyrimidin-4-yl)-3-fluoro-2-methylphenyl]ethyl}-1,2,4-oxadiazole-5-carboxamide] are 0.0973 nM and 2150 nM.
